Drawing on patent US20250059208A1, “KRAS MODULATING COMPOUNDS” (priority 2023, published 2025), this text covers EC50 and IC50 for 8 compounds.

Assay [1] has as its system cellular pERK in NCI-H441 (KRAS-G12V) cell-line. Briefly: Cell based pERK assay, NCI-H441. To be noted: Homo sapiens; NCI-H441 (KRAS-G12V) cells, 2 hours compound incubation, HTRF Phospho-ERK1/2. The procedure:
(§1) Compounds were tested in a 384-well assay format for their ability to inhibit cellular pERK in Kuramochi (WT KRAS), MIA-PaCa-2 (KRAS-G12C), ASPC-1 (KRAS G12D), and NCI-H441 (KRAS-G12V) cell-lines. Compounds were serially diluted (1:3) in DMSO. On day −1, 80 μL of cells were plated per well in the 384 well tissue-culture plates (Greiner: Cat #781080) to seed 5000 cells per wells of AsPC-1 or 7500 cells of MIA-PaCa-2, NCI-H441, and Kuramochi cell lines in RPMI (Corning: Cat #10-040-CM) with 10% fetal bovine serum (FBS) (HyClone: Cat #SH30071-03) and IX penicillin-streptomycin-glutamate (PSG) (Corning: Cat #30-009-C1) for […] and Kuramochi cell lines and DMEM (Corning: Cat #15-018-CM) with 10% FBS and 1×PSG for MIA-PaCa-2 cell line. The plates were then incubated overnight at 37° C. and 5% CO2. On day 0, 400 nL of compound/well was added into the cell plates and mixed 5 times by pipetting using a Beckmann Biomek FX. The cell plates were then incubated for 2 hours at 37° C. and 5% CO2. HTRF Advanced Phospho-ERK1/2 (THR202/TYR204) Detection Kits (PerkinElmer: Cat #64AERPEG) were used to prepare the lysis and detection solution according to manufacturer protocol. Following the 2 hour incubation, 70 μL of medium was aspirated from the plates and 10 μL of lysis and detection solution was added to the plates using a Biotek EL406 washer and dispenser. Plates were sealed and stored overnight at room temperature. HTRF ratio (665 nm/615 nm) was read by Envision multimode reader (PerkinElmer) the next day. The TR-FRET ratios were normalized to a positive (saturating concentration of known inhibitor) and negative (DMSO) control and plotted against the log of compound concentration.

In assay [2] the test system is cellular pERK in MIA-PaCa-2 (KRAS-G12C) cell-line. In words: Cell based pERK assay, MIA-PaCa-2. To be noted: Homo sapiens; MIA-PaCa-2 (KRAS-G12C) cells, 2 hours compound incubation, HTRF Phospho-ERK1/2; read-out: MIAPaCa2 pERK EC50. The protocol: as §1
The test system of assay [3] is cellular pERK in Kuramochi (WT KRAS) cell-line. Briefly: Cell based pERK assay, Kuramochi. The following applies: 2 h, Kuramochi (WT KRAS) cells, 2 hours compound incubation, HTRF Phospho-ERK1/2. The procedure:
as §1

The next assay concerns the target GDP-loaded KRAS-G12C (Homo sapiens, UniProt P01116, G12C). Briefly: KRAS (GDP) biochemical TR-FRET probe displacement assay, G12C. The following applies: 2 hours at room temperature. Type of assay: binding. The protocol: (§2) • Compounds were tested for binding to GDP-loaded wild-type KRAS (WT), KRAS-G12C, KRAS-G12D, and KRAS-G12V in a 384-well assay format using a TR-FRET probe displacement assay in buffer consisting of 50 mM Hepes (pH 7.4), 150 mM NaCl. 5 mM MgCl2 and 0.005% Tween-20. 0.03 nM KRAS was used in this assay with 0.02 nM Eu-streptavidin and 12 nM Cy-5 labelled probe. Compounds were serially diluted (1:3) in DMSO. The LabCyte ECHO Acoustic dispenser was used to pre-spot the assay plates (384-well Non-Binding Surface plates, Corning, Catalog #3824) with 50 nL of compound. 5 μL of 2× enzyme concentration was added to the pre-spotted plates and incubated for 30 minutes before adding 5 μL of 2× concentration of Eu-streptavidin and Cy-5 labelled probe (10 μL final reaction volume). The plates were incubated at room temperature for 2 hours before measuring TR-FRET ratio (665 nm/615 nm) on the Envision multimode plate reader. The ratios were normalized to a positive (saturating concentration of known inhibitor) and negative (DMSO) control and plotted against the log of compound concentration. […]

The target in a further assay is GDP-loaded KRAS-G12D (Homo sapiens, UniProt P01116, G12D). Briefly: KRAS (GDP) biochemical TR-FRET probe displacement assay, G12D. Type of assay: binding. To be noted: 2 hours at room temperature. The procedure:
as §2

For assay [4], the system named is cellular pERK in ASPC-1 (KRAS G12D) cell-line. Briefly: Cell based pERK assay, ASPC-1. The following applies: Homo sapiens, ASPC1, 2 h, ASPC-1 (KRAS G12D) cells, 2 hours compound incubation, HTRF Phospho-ERK1/2. The procedure: as §1
For assay [5], the target named is GDP-loaded wild-type KRAS (WT) (Homo sapiens, UniProt P01116). In words: KRAS (GDP) biochemical TR-FRET probe displacement assay, WT. The assay is classed as binding. The following applies: 2 hours at room temperature. The procedure:
as §2

The next assay concerns the target GDP-loaded KRAS-G12V (Homo sapiens, UniProt P01116, G12V). Briefly: KRAS (GDP) biochemical TR-FRET probe displacement assay, G12V. To be noted: 2 hours at room temperature. The assay is classed as binding. The procedure: as §2

Chain of GDP-loaded KRAS-G12V (P01116 1-188 isoform P01116-2 G12V): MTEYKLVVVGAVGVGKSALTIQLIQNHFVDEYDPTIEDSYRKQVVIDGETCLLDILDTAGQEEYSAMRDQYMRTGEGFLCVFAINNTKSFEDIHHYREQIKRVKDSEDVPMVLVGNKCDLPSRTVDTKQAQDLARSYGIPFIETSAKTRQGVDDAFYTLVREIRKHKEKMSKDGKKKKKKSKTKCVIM
Chain of GDP-loaded wild-type KRAS (WT) (P01116 1-188 isoform P01116-2): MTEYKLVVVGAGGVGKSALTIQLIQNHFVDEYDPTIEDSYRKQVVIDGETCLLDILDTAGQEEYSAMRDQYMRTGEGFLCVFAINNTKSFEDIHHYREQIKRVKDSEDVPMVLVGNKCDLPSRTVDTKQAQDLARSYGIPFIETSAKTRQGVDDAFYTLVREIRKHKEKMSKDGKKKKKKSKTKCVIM
Chain of GDP-loaded KRAS-G12D (P01116 1-188 isoform P01116-2 G12D): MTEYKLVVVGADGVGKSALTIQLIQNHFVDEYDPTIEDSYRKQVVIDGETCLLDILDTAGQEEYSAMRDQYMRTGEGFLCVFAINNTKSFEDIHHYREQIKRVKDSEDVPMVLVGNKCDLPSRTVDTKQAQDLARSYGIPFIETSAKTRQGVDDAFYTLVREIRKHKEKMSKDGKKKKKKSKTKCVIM
Chain of GDP-loaded KRAS-G12C (P01116 1-188 isoform P01116-2 G12C): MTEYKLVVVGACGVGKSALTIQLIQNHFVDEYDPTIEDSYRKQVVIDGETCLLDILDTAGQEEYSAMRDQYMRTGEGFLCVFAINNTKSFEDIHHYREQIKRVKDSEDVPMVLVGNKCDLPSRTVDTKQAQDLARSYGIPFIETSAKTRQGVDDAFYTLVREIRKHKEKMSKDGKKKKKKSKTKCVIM

Take `C#Cc1c(F)c(F)cc2cc(O)cc(-c3c(F)cc4c(N5CC6(F)CCC(F)(C5)N6)nc(OCC56CCCN5CCC6)nc4c3F)c12` [Example 2-5]: the EC50 in assay [1] is 6.29 nM; in assay [2] it was 3.01 nM; in assay [3] it was 8.69 nM; in assay [4], 61.7 nM. Further, the IC50 at GDP-loaded KRAS-G12C stood at 0.15 nM; at GDP-loaded KRAS-G12D it was 0.61 nM; in assay [5], 0.29 nM; on GDP-loaded KRAS-G12V, 0.2 nM.

Turning to `C#Cc1c(F)ccc2cc(O)cc(-c3c(Cl)cc4c(N5CC6(F)CCC(F)(C5)N6)nc(OC[C@@]56CCCN5C[C@H](F)C6)nc4c3F)c12` [Example 2-6], the EC50 was 6.11 nM in assay [1], 1.75 nM in assay [2], 5.13 nM in assay [3] and 27.5 nM in assay [4]. The half-maximal inhibitory concentration (IC50) on GDP-loaded KRAS-G12C was found to be 2.8 nM; on GDP-loaded KRAS-G12D, 25.8 nM; in assay [5], 5.93 nM; on GDP-loaded KRAS-G12V, 9.86 nM.

Regarding `Cc1cc(-c2c(F)cc3c(N4CC5(F)CCC(F)(C4)N5)nc(OC[C@@]45CCCN4C[C@H](F)C5)nc3c2F)c2cccnc2c1N` [Example 2-7], the EC50 in assay [1], in assay [2], in assay [3] and in assay [4] was more than 1000 nM throughout. The IC50 (at GDP-loaded KRAS-G12C; on GDP-loaded KRAS-G12D; in assay [5]; at GDP-loaded KRAS-G12V) was more than 100 nM in each case.

As to `Cc1cc(-c2ncc3c(N4CC5(F)CCC(F)(C4)N5)nc(OC[C@@]45CCCN4C[C@H](F)C5)nc3c2F)c2cccnc2c1N` [Example 2-8], the EC50 in assay [1], in assay [2], in assay [3] and in assay [4] was more than 1000 nM in each case. Moreover, the IC50 (on GDP-loaded KRAS-G12C; at GDP-loaded KRAS-G12D; in assay [5]; at GDP-loaded KRAS-G12V) was more than 100 nM each time.

Consider `Cc1cc(-c2c(Cl)cc3c(N4CC5(F)CCC(F)(C4)N5)nc(OC[C@@]45CCCN4C[C@H](F)C5)nc3c2F)c2cccnc2c1N` [Example 2-9], for which the EC50 in assay [1], in assay [2], in assay [3] and in assay [4] was more than 1000 nM throughout. Further, the IC50 (on GDP-loaded KRAS-G12C; on GDP-loaded KRAS-G12D; in assay [5]; at GDP-loaded KRAS-G12V) was more than 100 nM in each case.

For `C#Cc1c(F)ccc2cc(N)cc(-c3c(F)cc4c(N5CC6(F)CCC(F)(C5)N6)nc(OCC56CCCN5CCC6)nc4c3F)c12` [Example 2-10], the EC50 in assay [1] came to 49 nM; in assay [2] it was 8.62 nM; in assay [3], 5.34 nM; in assay [4], 150 nM. The IC50 at GDP-loaded KRAS-G12C is 4.22 nM; at GDP-loaded KRAS-G12D, 17.4 nM; in assay [5] it was 3.67 nM; on GDP-loaded KRAS-G12V, 4.17 nM.

For `C#Cc1c(F)ccc2cc(O)cc(-c3ncc4c(N5CC6(F)CCC(F)(C5)N6)nc(OC[C@@H]5CC[C@]6(COc7cc(C(F)(F)F)ncn7)CCCN56)nc4c3F)c12` [Example 2-11], the EC50 amounted to 56.3 nM in assay [1], 5.79 nM in assay [2], 24.5 nM in assay [3] and 54.5 nM in assay [4]. Further, the IC50 at GDP-loaded KRAS-G12C worked out at 16.8 nM; at GDP-loaded KRAS-G12D, 11.6 nM; in assay [5], 12.3 nM; on GDP-loaded KRAS-G12V, 22.2 nM.

Regarding `C#Cc1c(F)ccc2cc(N)cc(-c3ncc4c(N5CC6(F)CCC(F)(C5)N6)nc(OC[C@@]56CCCN5C[C@H](F)C6)nc4c3F)c12` [Example 5-1, 4-(4-(1,5-difluoro-3,8-diazabicyclo[3.2.1]octan-3-yl)-8-fluoro-2-(((2R,7aS)-2-fluorotetrahydro-1H-pyrrolizin-7a(5H)-yl)methoxy)pyrido[4,3-d]pyrimidin-7-yl)-5-ethynyl-6-fluoronaphthalen-2-amine], the EC50 in assay [1] is 8.41 nM; in assay [2], 4.99 nM; in assay [3] it was 2.94 nM; in assay [4] it was 25.9 nM. The IC50 worked out at 2.78 nM at GDP-loaded KRAS-G12C, 15.1 nM on GDP-loaded KRAS-G12D, 2.31 nM in assay [5] and 7.59 nM on GDP-loaded KRAS-G12V.
